The target in this assay is Proto-oncogene tyrosine-protein kinase Src (Homo sapiens, UniProt P12931). Briefly: Homogeneous Time-resolved Fluorescence (HTRF) Assay. As for the experimental part:
Kinase assays were performed using the europium/APC detection format (LANCE, Perkin Elmer). HTRF is based on the proximity of europium cryptate (donor fluorophore)-labeled antiphosphotyrosine and streptavidin labeled with APC(allophycocyanin), which have been brought together by a binding reaction.

The term IC50 denotes the midpoint of a concentration-inhibition curve.

Each structure is given as a SMILES string.

Proto-oncogene tyrosine-protein kinase Src, sequence (P12931 2-536 limits assumed): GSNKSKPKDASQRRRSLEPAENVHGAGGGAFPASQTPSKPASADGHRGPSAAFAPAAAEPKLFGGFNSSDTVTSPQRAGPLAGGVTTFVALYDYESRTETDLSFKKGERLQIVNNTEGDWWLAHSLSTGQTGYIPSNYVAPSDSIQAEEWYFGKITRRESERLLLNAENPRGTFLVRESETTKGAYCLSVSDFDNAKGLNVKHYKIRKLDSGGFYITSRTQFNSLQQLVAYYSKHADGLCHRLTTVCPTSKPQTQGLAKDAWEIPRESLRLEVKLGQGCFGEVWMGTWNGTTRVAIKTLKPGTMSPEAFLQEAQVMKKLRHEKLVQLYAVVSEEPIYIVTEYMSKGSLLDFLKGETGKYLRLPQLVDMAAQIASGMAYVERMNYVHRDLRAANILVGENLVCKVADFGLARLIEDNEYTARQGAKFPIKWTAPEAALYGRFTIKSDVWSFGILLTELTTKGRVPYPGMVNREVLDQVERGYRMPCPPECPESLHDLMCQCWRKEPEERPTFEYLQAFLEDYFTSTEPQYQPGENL

With `COc1cc2c(Nc3cc(OC)c(OC)c(OC)c3)c(C#N)cnc2cc1/C=C/c1cc[n+]([O-])cc1` [4-[(E)-2-{3-cyano-6-methoxy-4-[(3,4,5-trimethoxyphenyl)amino]quinolin-7-yl}ethenyl]-1-oxidopyridin-1-ium], the half-maximal inhibitory concentration (IC50) came out at 0.011 µM.

Turning to `N#Cc1cnc2cc(/C=C/c3ccncc3)ccc2c1NCc1cc(Cl)cc(Cl)c1` [4-{[(3,5-dichlorophenyl)methyl]amino}-7-[(E)-2-(pyridin-4-yl)ethenyl]quinoline-3-carbonitrile], the IC50 turned out to be 1 µM.

The record behind these values is BindingDB's records for doi:10.1016/j.bmcl.2005.01.004 (Wyeth-Ayerst Research, 2005).
